# Assay results published in PubChem BioAssay (NCI).
#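 Cells were grown in 96-well plates and exposed to each compound for 48 hours at five concentrations; endpoints were interpolated linearly between bracketing concentrations, or set to the highest concentration if not reached. At the GI50, growth is halved. The concentration for full growth arrest is given as TGI.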
# Key:
# Assay in all cases: NCI tumour cell line growth inhibition, 48 h
# IGROV1 ovarian = system: IGROV1 ovarian
# LOX IMVI melanoma = system: LOX IMVI melanoma
# NCI-H226 lung = system: NCI-H226 lung
# KM20L2 colon = system: KM20L2 colon
# NCI-H522 lung = system: NCI-H522 lung
# XF 498 CNS = system: XF 498 CNS
# SNB-78 CNS = system: SNB-78 CNS
# M19-MEL melanoma = system: M19-MEL melanoma
# M14 melanoma = system: M14 melanoma
# NCI-H460 lung = system: NCI-H460 lung
# TK-10 renal = system: TK-10 renal
# DMS 114 small cell lung = system: DMS 114 small cell lung
# CAKI-1 renal = system: CAKI-1 renal
# DLD-1 colon = system: DLD-1 colon
# LXFL 529 NSCLC = system: LXFL 529 NSCLC
# DMS 273 small cell lung = system: DMS 273 small cell lung
# HOP-18 NSCLC = system: HOP-18 NSCLC
# RXF-631 renal = system: RXF-631 renal
Compound,TGI (IGROV1 ovarian),TGI (LOX IMVI melanoma),TGI (NCI-H226 lung),TGI (KM20L2 colon),TGI (NCI-H522 lung),TGI (XF 498 CNS),TGI (SNB-78 CNS),TGI (M19-MEL melanoma),TGI (M14 melanoma),TGI (NCI-H460 lung),TGI (TK-10 renal),TGI (DMS 114 small cell lung),TGI (CAKI-1 renal),TGI (DLD-1 colon),TGI (LXFL 529 NSCLC),TGI (DMS 273 small cell lung),TGI (HOP-18 NSCLC),GI50 (LOX IMVI melanoma),GI50 (NCI-H226 lung),TGI (RXF-631 renal)
CC(C)C(Sc1nc(-c2ccccc2)c(-c2ccccc2)[nH]1)C(=O)NN (centres undefined),> 100 µM,> 100 µM,> 100 µM,> 100 µM,> 100 µM,> 100 µM,> 100 µM,> 100 µM,> 100 µM,> 100 µM,> 100 µM,> 100 µM,> 100 µM,> 100 µM,> 100 µM,> 100 µM,–,–,–,–
Nc1nc2n[nH]nc2c(=O)[nH]1,> 100 µM,6.88 µM,57.5 µM,> 100 µM,40.9 µM,–,> 100 µM,–,2.98 µM,> 89.4 µM,12.7 µM,54.7 µM,> 100 µM,> 100 µM,> 100 µM,18.2 µM,85.3 µM,–,–,–
CCCCN(Cc1ccccc1)C(=NC#N)N(Cc1ccccc1)Cc1ccccc1,> 89.5 µM,35.1 µM,70.5 µM,95.6 µM,40.6 µM,–,> 100 µM,62.6 µM,47.4 µM,> 100 µM,> 100 µM,–,58.4 µM,> 100 µM,34.3 µM,43.6 µM,–,–,–,–
Cn1c(Cl)cn2c3nc4ccccc4nc3c(=O)c(C#N)c12,> 100 µM,> 100 µM,> 100 µM,–,> 100 µM,> 100 µM,> 100 µM,> 100 µM,> 100 µM,> 100 µM,> 100 µM,> 100 µM,> 100 µM,> 100 µM,> 100 µM,> 100 µM,> 100 µM,–,–,–
Cn1ccc2c(C(=O)c3ccccc3)cccc2c1=O,> 100 µM,> 100 µM,–,–,81.1 µM,> 100 µM,–,> 100 µM,> 100 µM,> 100 µM,> 100 µM,> 100 µM,> 100 µM,> 100 µM,> 100 µM,> 100 µM,–,–,–,–
COc1ccc(N2C(=O)C3c4[nH]c5ccccc5c4C4CC(C)CC(C)C4C3C2=O)cc1 (centres undefined),> 100 µM,–,> 100 µM,> 100 µM,> 100 µM,> 100 µM,> 100 µM,> 100 µM,> 100 µM,–,–,> 100 µM,–,> 100 µM,> 100 µM,> 100 µM,> 100 µM,–,–,–
CN(C)CC1CCCC(CN(C)C)C1=NOC(=O)c1ccccc1 (centres undefined),> 100 µM,> 100 µM,> 100 µM,> 100 µM,> 100 µM,> 100 µM,> 100 µM,> 100 µM,> 100 µM,> 100 µM,> 100 µM,> 100 µM,–,> 100 µM,> 100 µM,> 100 µM,> 100 µM,–,–,–
COc1ccc2c(c1)Oc1cc(O)ccc1[C@@H]2c1ccccc1C(=O)NC(C)c1ccccc1 (some centres undefined),41.3 µM,30.4 µM,35.4 µM,31.4 µM,33.4 µM,–,32.6 µM,32.2 µM,24.6 µM,27.4 µM,50.7 µM,32.3 µM,42.2 µM,39.4 µM,30.1 µM,28.2 µM,–,–,–,–
COc1cc2c(cc1OC)[C@H]1C(COC(=O)c3ccccc3)CSC(=Nc3ccccc3)N1CC2 (some centres undefined),> 100 µM,> 100 µM,> 100 µM,> 100 µM,6.08 µM,> 100 µM,> 100 µM,> 100 µM,> 100 µM,> 100 µM,> 100 µM,> 100 µM,> 100 µM,> 100 µM,> 100 µM,> 100 µM,> 100 µM,–,–,–
O=C(O)CCc1cccc2c1oc1c(CCC(=O)O)cccc12,> 100 µM,> 100 µM,> 100 µM,> 100 µM,> 100 µM,> 100 µM,> 100 µM,> 100 µM,> 100 µM,> 100 µM,> 100 µM,> 100 µM,> 100 µM,> 100 µM,> 100 µM,> 100 µM,> 100 µM,–,–,–
CC(=O)c1cccc(Nc2nc3ccc(Cl)cc3c3[nH]c4ccccc4c23)c1,> 48.6 µM,> 100 µM,67.1 µM,–,16.4 µM,–,–,–,> 100 µM,6.41 µM,25.8 µM,–,> 36.7 µM,–,–,–,–,5.46 µM,10.4 µM,–
CC(O)c1ccc[n+](Cc2ccccc2)c1 (centres undefined),> 400 µM,> 400 µM,> 400 µM,> 400 µM,> 400 µM,> 400 µM,–,> 400 µM,–,> 400 µM,> 400 µM,> 400 µM,> 400 µM,> 400 µM,> 400 µM,> 400 µM,> 400 µM,–,–,> 400 µM
CCOC(=O)[C@@H]1CCN2CN(c3ccc(OC)cc3)N=C(c3ccccc3)[C@@]12c1ccccc1,72.1 µM,29.6 µM,38.9 µM,–,49.5 µM,–,–,–,51.3 µM,> 100 µM,> 100 µM,–,> 100 µM,–,–,–,–,–,–,–
Cc1ccc(C(=O)Nc2ccc(CP(=O)(O)O)cc2CP(=O)(O)O)cc1NC(=O)c1cccc(NC(=O)Nc2cccc(C(=O)Nc3cc(C(=O)Nc4ccc(CP(=O)(O)O)cc4CP(=O)(O)O)ccc3C)c2)c1,> 100 µM,> 100 µM,> 100 µM,–,> 100 µM,–,–,–,> 100 µM,> 100 µM,> 100 µM,–,> 100 µM,–,–,–,–,–,–,–
c1ccc2c(c1)cc1c3[nH]c4ccccc4c3ccn21,> 10 µM,> 10 µM,> 10 µM,–,> 10 µM,–,–,–,> 10 µM,> 10 µM,> 10 µM,–,> 10 µM,–,–,–,–,–,–,–
S=C1CSc2c(ccc3ccccc23)N1,> 100 µM,> 100 µM,> 100 µM,–,> 100 µM,–,–,–,> 100 µM,> 100 µM,> 100 µM,–,> 100 µM,–,–,–,–,–,–,–
Cc1ccc(C)n1-c1ccccc1C1C=CN(C(=O)OC(C)(C)C)C=C1,> 100 µM,37.4 µM,31.5 µM,–,36.2 µM,–,–,–,> 100 µM,96.9 µM,> 100 µM,–,> 100 µM,–,–,–,–,–,–,–
CSc1sc(=S)sc1C(=O)N(C)c1ccccc1,> 100 µM,> 100 µM,> 100 µM,> 100 µM,> 100 µM,> 100 µM,> 100 µM,> 100 µM,> 100 µM,> 100 µM,> 100 µM,> 100 µM,–,–,> 100 µM,> 100 µM,–,–,–,–
O=C(NNCc1ccco1)c1cc2ccccc2[nH]1,> 100 µM,> 100 µM,> 100 µM,–,> 100 µM,–,–,–,> 100 µM,> 100 µM,> 100 µM,–,> 100 µM,–,–,–,–,–,–,–
Cc1ccc(/C=C2\CN(C)CC3C2=NN(c2ccccc2)C3c2ccc(C)cc2)cc1 (centres undefined),> 100 µM,> 100 µM,> 100 µM,–,> 100 µM,–,–,–,> 100 µM,> 100 µM,> 100 µM,–,> 100 µM,–,–,–,–,–,–,–
Nc1ccc(CCSSCCc2ccc(N)cc2)cc1,> 100 µM,> 59.8 µM,> 100 µM,–,34.9 µM,–,–,–,> 74.2 µM,86.8 µM,> 100 µM,–,> 85.2 µM,–,–,–,–,–,–,–
COC(=O)NC12CC3CC(CC(F)(C3)C1)C2,> 100 µM,> 100 µM,–,> 100 µM,> 100 µM,> 100 µM,> 100 µM,> 100 µM,> 100 µM,> 100 µM,> 100 µM,–,–,> 100 µM,–,> 100 µM,–,–,–,> 100 µM
N#Cc1ccc(C(=O)/C=C/c2ccc(O)c(O)c2)cc1,27 µM,26.3 µM,62.7 µM,–,7.54 µM,–,–,–,32.8 µM,29.8 µM,27.6 µM,–,29.6 µM,–,–,–,–,–,–,–
COC(=O)C(Cc1ccc(Oc2cc(CC(NC(=O)c3ccccc3)C(=O)OC)ccc2OC)cc1)NC(=O)c1ccccc1 (centres undefined),> 100 µM,> 71.6 µM,> 64.5 µM,–,27.2 µM,–,–,–,20.9 µM,> 100 µM,> 59.8 µM,–,> 100 µM,–,–,–,–,–,–,–
O=C(c1ccccc1)N1OCCC1Nc1ccc(Br)cc1 (centres undefined),> 10 µM,> 10 µM,> 10 µM,–,> 10 µM,–,–,–,> 10 µM,> 10 µM,> 10 µM,–,> 10 µM,–,–,–,–,–,–,–
Cc1ccc(C2=C(C#N)C(=O)N3CCN=C3S2)cc1,> 100 µM,> 100 µM,> 100 µM,–,> 100 µM,–,–,–,> 100 µM,> 100 µM,> 100 µM,–,> 100 µM,–,–,–,–,–,–,–
CN(N)/N=N/c1nc[nH]c1[N+](=O)[O-],> 100 µM,> 100 µM,> 100 µM,–,> 100 µM,–,–,–,> 100 µM,> 100 µM,> 100 µM,–,40.9 µM,–,–,–,–,–,–,–
NC(CCC(=O)NC(CSC(=O)N(O)c1ccccc1)C(=O)NCC(=O)O)C(=O)O (centres undefined),> 1000 µM,> 1000 µM,> 1000 µM,> 1000 µM,> 1000 µM,–,> 1000 µM,> 1000 µM,> 1000 µM,> 1000 µM,> 1000 µM,> 1000 µM,> 1000 µM,> 1000 µM,> 1000 µM,> 1000 µM,–,–,–,–
